Measured values reported in US7579348B2, “Derivatives of 8-substituted xanthines” (PGxHealth, LLC, priority 2005, dated 2009).

Molecular target: T1, rat A2B receptors (rA2B) (Rattus norvegicus, UniProt P29276)
T1 construct: expressed in transfected cells; membranes)
T1 sequence (P29276 1-332): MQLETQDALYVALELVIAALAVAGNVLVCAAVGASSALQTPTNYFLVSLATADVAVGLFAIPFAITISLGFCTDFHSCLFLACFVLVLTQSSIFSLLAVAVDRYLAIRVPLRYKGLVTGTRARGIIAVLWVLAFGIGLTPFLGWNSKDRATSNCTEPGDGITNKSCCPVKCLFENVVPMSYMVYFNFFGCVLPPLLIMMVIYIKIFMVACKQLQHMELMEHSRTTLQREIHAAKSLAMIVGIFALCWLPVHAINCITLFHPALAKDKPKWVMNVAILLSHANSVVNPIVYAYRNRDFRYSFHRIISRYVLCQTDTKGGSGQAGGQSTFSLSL
Assay: Radioligand binding, displacement of specific [125I]ABOPX binding
Settings: displacement of specific [125I]ABOPX binding at rat A2B receptors expressed in HEK-293 cells; read-out: RatA2B Ki
Excerpt: The rat A2B receptor cDNA was subcloned into the expression plasmid pDoubleTrouble using techniques described in Robeva, A. et al., Biochem. Pharmacol., 51, 545-555 (1996). The plasmid was amplified in competent JM109 cells and plasmid DNA isolated using Wizard Megaprep columns (Promega Corporation, Madison, Wis.). A2B adenosine receptors were introduced into HEK-293 cells by means of Lipofectin as described in Felgner, P. L. et al., Proc. Natl. Acad. Sci. USA, 84, 7413-7417 (1987).
Transfected HEK cells were grown under 5% CO2/[…] humidified atmosphere at a temperature of 37° C. Colonies were selected by growth of cells in 0.6 mg/mL G418. Transfected cells were maintained in DMEM supplemented with Hams F 12 nutrient mixture (1/1), 10% newborn calf serum, 2 mM glutamine and containing 50 IU/mL penicillin, […], and 0.2 mg/mL Geneticin (G418, Boehringer Mannheim). Cells were cultured in 10 cm diameter round plates and subcultured when grown confluent (approximately after 72 hours).
At A2B receptors: Confluent monolayers of HEK-A2B cells were washed with PBS followed by ice cold Buffer A (10 mM HEPES, 10 mM EDTA, pH 7.4) with protease inhibitors (10 μg/mL benzamidine, 100 μM phenylmethanesulfonyl fluoride, and 2 μg/mL of each aprotinin, pepstatin and leupeptin). The cells were homogenized in a Polytron (Brinkmann) for 20s, centrifuged at 30,000 ×g, and the pellets washed twice with buffer HE (10 mM HEPES, 1 mM EDTA, pH 7.4 with protease inhibitors). The final pellet was resuspended in buffer HE, supplemented with 10% sucrose and frozen in aliquots at −80° C. For binding assays membranes were thawed and diluted 5-10 fold with HE to a final protein concentration of approximately 1 mg/mL. To determine protein concentrations, membranes, and bovine serum albumin standards were dissolved in 0.2% NaOH/0.01% SDS and protein determined using fluorescamine fluorescence. Stowell, C. P. et al., Anal. Biochem., 85, 572-580 (1978).
Saturation binding assays for rat A2B adenosine receptors were performed with [^3H]ZM214,385 (17 Ci/mmol, Tocris Cookson, Bristol UK) (Ji, X. et al., Drug Design Discov., 16, 216-226 (1999)) or ^125I-ABOPX (2200 Ci/mmol). To prepare 125I-ABOPX, 10 μL of 1 mM ABOPX in methanol/1 M NaOH (20:1) was added to 50 μL of 100 mM phosphate buffer, pH 7.3. One or 2 mCi of Na^125I was added, followed by 10 μL of 1 mg/mL chloramine-T in water. After incubation, 20 minutes at room temperature, 50 μL of 10 mg/mL Na-metabisulfite in water was added to quench the reaction. The reaction mixture was applied to a C18 HPLC column, eluting with a mixture of methanol and 5 mM phosphate, pH 6.0. After 5 min at 35% methanol, the methanol concentration was ramped to 100% over 15 min. Unreacted ABOPX eluted in 11-12 minutes; ^125I-ABOPX eluted at 18-19 min in a yield of 50-60% with respect to the initial ^125I.
In equilibrium binding assays the ratio of ^127I/^125I-ABOPX was 10-20/1. Radioligand binding experiments were performed in triplicate with 20-25 μg membrane protein in a total volume of 0.1 mL HE buffer supplemented with 1 U/mL adenosine deaminase and 5 mM MgCl2. The incubation time was 3 h at 21° C. Nonspecific binding was measured in the presence of 100 μM NECA. Competition experiments were carried out using 0.6 nM ^125I-ABOPX. Membranes were filtered on Whatman GF/C filters using a Brandel cell harvester (Gaithersburg, Md.) and washed 3 times over 15-20 seconds with ice cold buffer (10 mM Tris, 1 mM MgCl2, pH 7.4). Bmax and KD values were calculated by Marquardt's nonlinear least squares interpolation for single a site binding models. Marquardt, D. M., J. Soc. Indust. Appl. Math., 11, 431-441.21 (1963). Ki values for different compounds were derived from IC50 values as described. Linden, J., J. Cycl. Nucl. Res., 8, 163-172 (1982). Data from replicate experiments are tabulated as means ±SEM. […]

SMILES	Ki [nM]
CCCn1c(=O)c2[nH]c(-c3ccc(-n4nc(-c5ccco5)cc4N)nc3)nc2n(CCC)c1=O [Compound 16, 8-(6-(5-Amino-3-(furan-2-yl)-1H-pyrazol-1-yl)pyridin-3-yl)-1,3-dipropyl-1H-purine-2,6(3H, 7H)-dione]	< 100
CCn1c(=O)c2[nH]c(-c3ccc4nnc(C)n4c3)nc2n(CC)c1=O [Compound 4, 1,3-Diethyl-8-(3-methyl-[1,2,4]triazolo[4,3,a]pyridin-6-yl)-1H-purine-2,6(3H,7H)-dione]	100 to 500
CCCn1c(=O)c2[nH]c(-c3ccc(-n4nc(-c5ccccc5)cc4N)nc3)nc2n(CCC)c1=O [Compound 15, 8-(6-(5-Amino-3-phenyl-1H-pyrazol-1-yl)pyridin-3-yl)-1,3-dipropyl-1H-purine-2,6(3H, 7H)-dione]	< 100
CCCn1c(=O)c2[nH]c(-c3ccc(-n4nc(C(=O)OCC)cc4C)nc3)nc2n(CCC)c1=O [Compound 13]	100 to 500
CCCn1c(=O)c2[nH]c(-c3ccc(-n4nc(C)cc4-c4ccccc4)nc3)nc2n(CCC)c1=O [Compound 5, 8-(6-(3-methyl-5-phenyl-1H-pyrazol-1-yl)pyridin-3-yl)-1,3-Dipropyl-1H-purine-2,6(3H,7H)-dione]	100 to 500
CCn1c(=O)c2[nH]c(-c3ccc4nnc(C(F)(F)F)n4c3)nc2n(CC)c1=O [Compound 3, 1,3-Diethyl-8-(3-(trifluoromethyl)-[1,2,4]triazolo[4,3,a]pyridin-6-yl)-1H-purine-2,6(3H,7H)-dione]	100 to 500
CCCn1c(=O)c2[nH]c(-c3ccc(NN)nc3)nc2n(CCC)c1=O [Compound 1, 1,3-Dipropyl-8-[6-hydrazino-3-pyridyl]xanthine]	100 to 500

Further lines, results first:

Ki [nM]	SMILES
< 100	CCCn1c(=O)c2[nH]c(-c3ccc(-n4nc(C(F)(F)F)cc4-c4ccco4)nc3)nc2n(CCC)c1=O [Compound 9, 8-(6-(3-(trifluoromethyl)-5-(furan-2-yl)-1H-pyrazol-1-yl)pyridin-3-yl)-1,3-Dipropyl-1H-purine-2,6(3H, 7H)-dione]
100 to 500	CCCn1c(=O)c2[nH]c(-c3ccc4nncn4c3)nc2n(CCC)c1=O [Compound 14, 1,3-Dipropyl-8-([1,2,4]triazolo[4,3,a]pyridin-6-yl)-1H-purine-2,6(3H, 7H)-dione]
100 to 500	CCCn1c(=O)c2[nH]c(-c3ccc(-n4nc(C(F)(F)F)cc4-c4cccs4)nc3)nc2n(CCC)c1=O [Compound 8, 8-(6-(3-(trifluoromethyl)-5-(thiophen-2-yl)-1H-pyrazol-1-yl)pyridin-3-yl)-1,3-Dipropyl-1H-purine-2,6(3H, 7H)-dione]
100 to 500	CCCn1c(=O)c2[nH]c(-c3ccc(-n4nc(C)cc4C)nc3)nc2n(CCC)c1=O [Compound 10]
500 to 5000	CCn1c(=O)c2[nH]c(-c3ccc(-n4nc(C)cc4-c4ccccc4)nc3)nc2n(CC)c1=O [Compound 2, 1,3-diethyl-8-(6-(3-methyl-5-phenyl-1H-pyrazol-1-yl)pyridin-3-yl)-1H-purine-2,6(3H,7H)-dione]
